Like-named read-outs stand apart in the source and are kept apart here.
Experiments:
HIV-1 strain 92HT599 = assay: Antiviral activity: p24 estimation in MT2 cells infected with HIV-1 strain 92HT599; type: cell-based; conditions: for inhibition at 0.1 µM: read-out: Antiviral activity % inhibition 100 nM; for inhibition at 1 µM: read-out: Antiviral activity % inhibition 1000 nM
Outline: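 Infection of MT2 cells used 10 TCID50/30000 cells, with compound present at ≤1% DMSO for ~96 h. p24 in well aliquots was quantified by kit. Percent inhibition is relative to vehicle controls.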

[1] = Cyto-toxicity assay (MTT) in MT2 cells without virus; type: cell-based; conditions: human
Procedure: For cyto-toxicity assay the same amount of MT2 cells as in antiviral assay without virus was added to the 96 well plates. The cyto-toxicity was measured using MTT reagent in parallel with p24 estimation. The percent viability is calculated in comparison with vehicle control.

[2] = Single dose oral pharmacokinetic study in mice; type: in vivo; conditions: Oral PK @ 30 mg/ kg dose in mice (Table 6); for Cmax / Tmax / AUC(0-t) / AUC(0-inf): mouse, plasma; for AUC(0-t): read-out: AUCt
Procedure: The test item was administered through oral route to animals (rat/mice) at 30 mg/kg dose in a suitable vehicle at 10 ml/kg dose volume. Blood samples (˜50 uL at each time point) were collected from retro-orbital plexus using K3 EDTA as anticoagulant in eppendorf tubes at defined time intervals under light ether anesthesia. The samples were centrifuged at 3500×g to separate plasma and stored at −80° C. until analysis.
Sample analysis: Test samples were analyzed using LC-MS-MS after developing fit-for-purpose method for each of test compound.

[3] = Human immunodeficiency virus 1, MT2, 96 h
[4] = 100 nM, MT2 cells, MTT, read-out: Cytotoxicity % viability 100 nM
[5] = 1000 nM, MT2 cells, MTT, read-out: Cytotoxicity % viability 1000 nM
[6] = Human immunodeficiency virus 1, 100 nM, MT2 cells, HIV-1 92HT599, ~96 hours, p24
[7] = Human immunodeficiency virus 1, 1000 nM, MT2 cells, HIV-1 92HT599, ~96 hours, p24

COC1CCN(C(=O)[C@]23CC[C@@H](C4(C)CC4)[C@@H]2[C@H]2CC[C@@H]4[C@@]5(C)CC[C@H](OC(=O)[C@H]6C[C@@H](C(=O)O)C6(C)C)C(C)(C)[C@@H]5CC[C@@]4(C)[C@]2(C)CC3)CC1 [Example 29]
inhibition at 0.1 µM (HIV-1 strain 92HT599; [3]): 95%
inhibition at 1 µM (HIV-1 strain 92HT599; [3]): 99%
viability at 100 nM [1, 4]: 81%
viability at 1000 nM [1, 5]: 77%
Tlast [2]: 48 h
Cmax [2]: 11.7 µg/mL
Tmax [2]: 16 h
AUC(0-t) [2]: 428 µg·h/mL

[2H]C([2H])([2H])C(CC(=O)O[C@H]1CC[C@]2(C)[C@H]3CC[C@@H]4[C@H]5[C@H](C6(C)CC6)CC[C@]5(C(=O)N5CCN(CC)CC5)CC[C@@]4(C)[C@]3(C)CC[C@H]2C1(C)C)(C(=O)O)C([2H])([2H])[2H] [Example 30]
inhibition at 0.1 µM (HIV-1 strain 92HT599; [6]): 97%
inhibition at 1 µM (HIV-1 strain 92HT599; [7]): 99%
viability at 100 nM [1]: 83%
viability at 1000 nM [1]: 82%
Tlast [2]: 48 h
AUC(0-inf) [2]: 78.5 µg·h/mL
Cmax [2]: 4.7 µg/mL
Tmax [2]: 3.5 h
AUC(0-t) [2]: 67.1 µg·h/mL

CC(C)(CC(=O)O[C@H]1CC[C@]2(C)[C@H]3CC[C@@H]4[C@H]5[C@H](C6(C)CC6)CC[C@]5(C(=O)N5CCN(CCN6CCOCC6)CC5)CC[C@@]4(C)[C@]3(C)CC[C@H]2C1(C)C)C(=O)O [Example 31, 2,2-dimethyl-4-oxo-4-(((1R,3aS,5aR,5bR,7aR,9S,11aR,11bR,13aR,13bR)-5a,5b,8,8,11a-pentamethyl-1-(1-methylcyclopropyl)-3a-(4-(2-morpholinoethyl)piperazine-1-carbonyl)icosahydro-1H-cyclopenta[a]chrysen-9-yl)oxy)butanoic acid]
inhibition at 0.1 µM (HIV-1 strain 92HT599; [6]): 99%
inhibition at 1 µM (HIV-1 strain 92HT599; [7]): 99%
viability at 100 nM [1]: 100%
viability at 1000 nM [1]: 95%
Tlast [2]: 48 h
AUC(0-inf) [2]: 240 µg·h/mL
Cmax [2]: 9.2 µg/mL
Tmax [2]: 6.5 h
AUC(0-t) [2]: 214 µg·h/mL

CC1([C@@H]2CC[C@]3(C(=O)N4CCN(CCN5CCOCC5)CC4)CC[C@]4(C)[C@H](CC[C@@H]5[C@@]6(C)CC[C@H](OC(=O)[C@H]7C[C@@H](C(=O)O)C7(C)C)C(C)(C)[C@@H]6CC[C@]54C)[C@@H]23)CC1 [Example 32]
inhibition at 0.1 µM (HIV-1 strain 92HT599; [6]): 99%
inhibition at 1 µM (HIV-1 strain 92HT599; [7]): 99%
viability at 100 nM [1]: 100%
viability at 1000 nM [1]: 95%
Tlast [2]: 48 h
AUC(0-inf) [2]: 240 µg·h/mL
Cmax [2]: 9.2 µg/mL
Tmax [2]: 6.5 h
AUC(0-t) [2]: 214 µg·h/mL

CC1([C@@H]2CC[C@]3(C(=O)N4CCN(CCCN5CCOCC5)CC4)CC[C@]4(C)[C@H](CC[C@@H]5[C@@]6(C)CC[C@H](OC(=O)[C@H]7C[C@@H](C(=O)O)C7(C)C)C(C)(C)[C@@H]6CC[C@]54C)[C@@H]23)CC1 [Example 34]
inhibition at 0.1 µM (HIV-1 strain 92HT599; [6]): 100%
inhibition at 1 µM (HIV-1 strain 92HT599; [7]): 100%
viability at 100 nM [1]: 100%
viability at 1000 nM [1]: 91%
Tlast [2]: 48 h
AUC(0-inf) [2]: 240 µg·h/mL
Cmax [2]: 9.2 µg/mL
Tmax [2]: 6.5 h
AUC(0-t) [2]: 214 µg·h/mL

COCCOCCN1CCN(C(=O)[C@]23CC[C@@H](C4(C)CC4)[C@@H]2[C@H]2CC[C@@H]4[C@@]5(C)CC[C@H](OC(=O)CC(C)(C)C(=O)O)C(C)(C)[C@@H]5CC[C@@]4(C)[C@]2(C)CC3)CC1 [Example 39, 4-(((1R,3aS,5aR,5bR,7aR,9S,11aR,11bR,13aR,13bR)-3a-(4-(2-(2-methoxyethoxyl)ethyl)piperazine-1-carbonyl)-5a,5b,8,8,11a-pentamethyl-1-(1-methylcyclopropyl)icosahydro-1H-cyclopenta[a]chrysen-9-yl)oxy)-2,2-dimethyl-4-oxobutanoic acid]
inhibition at 0.1 µM (HIV-1 strain 92HT599; [6]): 97%
inhibition at 1 µM (HIV-1 strain 92HT599; [7]): 99%
viability at 100 nM [1]: 83%
viability at 1000 nM [1]: 88%
Tlast [2]: 48 h
AUC(0-inf) [2]: 119 µg·h/mL
Cmax [2]: 7 µg/mL
Tmax [2]: 4 h
AUC(0-t) [2]: 111 µg·h/mL

COCCOCCN1CCN(C(=O)[C@]23CC[C@@H](C4(C)CC4)[C@@H]2[C@H]2CC[C@@H]4[C@@]5(C)CC[C@H](OC(=O)[C@H]6C[C@@H](C(=O)O)C6(C)C)C(C)(C)[C@@H]5CC[C@@]4(C)[C@]2(C)CC3)CC1 [Example 40, (1R,3S)-3-((((1R,3aS,5aR,5bR,7aR,9S,11aR,11bR,13aR,13bR)-3a-(4-(2-(2-methoxyethoxy)ethyl)piperazine-1-carbonyl)-5a,5b,8,8,11a-pentamethyl-1-(1-methylcyclopropyl)icosahydro-1H-cyclopenta[a]chrysen-9-yl)oxy)carbonyl)-2,2-dimethylcyclobutane-1-carboxylic acid]
inhibition at 0.1 µM (HIV-1 strain 92HT599; [6]): 100%
inhibition at 1 µM (HIV-1 strain 92HT599; [7]): 99%
viability at 100 nM [1]: 79%
viability at 1000 nM [1]: 81%
Tlast [2]: 48 h
AUC(0-inf) [2]: 119 µg·h/mL
Cmax [2]: 7 µg/mL
Tmax [2]: 4 h
AUC(0-t) [2]: 111 µg·h/mL

COCCOC1CCN(C(=O)[C@]23CC[C@@H](C4(C)CC4)[C@@H]2[C@H]2CC[C@@H]4[C@@]5(C)CC[C@H](OC(=O)CC(C)(C)C(=O)O)C(C)(C)[C@@H]5CC[C@@]4(C)[C@]2(C)CC3)CC1 [Example 41, 4-(((1R,3aS,5aR,5bR,7aR,9S,11aR,11bR,13aR,13bR)-3a-(4-(2-methoxyethoxyl)piperidine-1-carbonyl)-5a,5b,8,8,11a-pentamethyl-1-(1-methylcyclopropyl)icosahydro-1H-cyclopenta[a]chrysen-9-yl)oxy)-2,2-dimethyl-4-oxobutanoic acid]
inhibition at 0.1 µM (HIV-1 strain 92HT599; [6]): 97%
inhibition at 1 µM (HIV-1 strain 92HT599; [7]): 99%
viability at 100 nM [1]: 86%
viability at 1000 nM [1]: 86%
Tlast [2]: 48 h
AUC(0-inf) [2]: 240 µg·h/mL
Cmax [2]: 9.2 µg/mL
Tmax [2]: 6.5 h
AUC(0-t) [2]: 214 µg·h/mL

COCCOC1CCN(C(=O)[C@]23CC[C@@H](C4(C)CC4)[C@@H]2[C@H]2CC[C@@H]4[C@@]5(C)CC[C@H](OC(=O)[C@H]6C[C@@H](C(=O)O)C6(C)C)C(C)(C)[C@@H]5CC[C@@]4(C)[C@]2(C)CC3)CC1 [Example 42, (1R,3S)-3-((((1R,3aS,5aR,5bR,7aR,9S,11aR,11bR,13aR,13bR)-3a-(4-(2-methoxyethoxyl)piperidine-1-carbonyl)-5a,5b,8,8,8,11a-pentamethyl-1-(1-methylcyclopropyl)icosahydro-1H-cyclopenta[a]chrysen-9-yl)oxy)carbonyl)-2,2-dimethylcyclobutane-1-carboxylic acid]
inhibition at 0.1 µM (HIV-1 strain 92HT599; [3]): 94%
inhibition at 1 µM (HIV-1 strain 92HT599; [3]): 99%
viability at 100 nM [1, 4]: 86%
viability at 1000 nM [1, 5]: 84%
Tlast [2]: 48 h
Cmax [2]: 7.4 µg/mL
Tmax [2]: 32 h
AUC(0-t) [2]: 300 µg·h/mL

CC(C)(CC(=O)O[C@H]1CC[C@]2(C)[C@H]3CC[C@@H]4[C@H]5[C@H](C6(C)CC6)CC[C@]5(C(=O)N5CCC(C(=O)NCCN6CCOCC6)CC5)CC[C@@]4(C)[C@]3(C)CC[C@H]2C1(C)C)C(=O)O [Example 49, 2,2-dimethyl-4-oxo-4-(((1R,3aS,5aR,5bR,7aR,9S,11aR,11bR,13aR,13bR)-5a,5b,8,8,11a-pentamethyl-1-(1-methylcyclopropyl)-3a-(4-((2-morpholinoethyl)carbamoyl)piperidine-1-carbonyl)icosahydro-1H-cyclopenta[a]chrysen-9-yl)oxy)butanoic acid]
inhibition at 0.1 µM (HIV-1 strain 92HT599; [6]): 99%
inhibition at 1 µM (HIV-1 strain 92HT599; [7]): 98%
viability at 100 nM [1]: 85%
viability at 1000 nM [1]: 88%
Tlast [2]: 48 h
AUC(0-inf) [2]: 38.8 µg·h/mL
Cmax [2]: 5.6 µg/mL
Tmax [2]: 1.3 h
AUC(0-t) [2]: 38.7 µg·h/mL

CC1([C@@H]2CC[C@]3(C(=O)N4CCC(C(=O)NCCN5CCOCC5)CC4)CC[C@]4(C)[C@H](CC[C@@H]5[C@@]6(C)CC[C@H](OC(=O)[C@H]7C[C@@H](C(=O)O)C7(C)C)C(C)(C)[C@@H]6CC[C@]54C)[C@@H]23)CC1 [Example 50, (1R,3S)-2,2-dimethyl-3-((((1R,3aS,5aR,5bR,7aR,9S,11aR,11bR,13aR,13bR)-5a,5b,8,8,11a-pentamethyl-1-(1-methylcyclopropyl)-3a-(4-((2-morpholinoethyl)carbamoyl)piperidine-1-carbonyl)icosahydro-1H-cyclopenta[a]chrysen-9-yl)oxy)carbonyl)cyclobutane-1-carboxylic acid]
inhibition at 0.1 µM (HIV-1 strain 92HT599; [6]): 99%
inhibition at 1 µM (HIV-1 strain 92HT599; [7]): 99%
viability at 100 nM [1]: 86%
viability at 1000 nM [1]: 96%
Tlast [2]: 48 h
AUC(0-inf) [2]: 171 µg·h/mL
Cmax [2]: 9.1 µg/mL
Tmax [2]: 6 h
AUC(0-t) [2]: 164 µg·h/mL

— patent US20150119373A1, “NOVEL BETULINIC ACID DERIVATIVES AS HIV INHIBITORS” (HETERO RESEARCH FOUNDATION, priority 2012, published 2015)
